From patent US5672603A, “Apoptosis regulating composition” (Otsuka Pharmaceutical Co., Ltd., priority 1991, dated 1997)

Assays:
[1] = system: Human transformed normal T cells (MT-4), HIV-infected; assay: Antiretrovirus activity test: viable HIV-infected MT-4 cells; type: cell-based; conditions: for Number of HIV-infected cells: 3 days, control 105
Protocol: (§1) Human transformed normal T cells (MT-4) [Nagumo, T. and Hoshino, H., Jpn. J. Cancer Res. 79, 9-11 (1988)] were used to prepare a suspension of 2×10^5 cells/ml in RPMI-1640 medium (Gibco) supplemented 10% FCS (Gibco).
(§2) Compound 1 was dissolved in hydrochloric acid, diluted in the same medium as above, neutralized with 2N NaOH and adjusted to concentrations of 1 μg/ml, 10 μg/ml, 30 μg/ml and 100 μg/ml.
(§3) The cells prepared in (a) above and the test compound (final concentration: 1 μg/ml, 10 μg/ml, 30 μg/ml or 100 μg/ml) prepared in (b) above were placed in the wells of a 12-well culture plate (Costar). Then, 50 μl/well of HIV suspension was added to infect the cells in each well, followed by 3-day incubation at 37° C. in a 5% carbon dioxide incubator. As a control, the medium without addition of the test compound was used. After completion of incubation, the cell suspension in each well was taken and viable cells were counted.

[2] = system: Human promyelocytic leukemia cells (HL-60); assay: Cancer cell growth inhibition, HL-60 (long-term culture, trypan blue viable count); type: cell-based; conditions: control 100
Description: The human promyelocytic leukemia cell line HL-60 is a human leukemia cell line established by Robert Gallo et al. and typical properties thereof are described in the literature [Gallo, R. C. et al., Blood, 54, 713 (1979)]. It is available from the American Type Culture Collection (ATCC) under the accession number ATCC No. CCL-240.
The concentration of HL-60 cells was adjusted to 1×10^5 cells/ml using RPMI-1640 medium (GIBCO) supplemented with 10% of FCS (fetal calf serum; GIBCO).
Test compound 1 was dissolved in acetic acid, followed by dilution with the same medium as used above in (1) and neutralization with 2N NaOH to give final concentrations of 100 μg/ml, 10 μg/ml and 1.0 μg/ml.
a) The test compound solutions prepared as described above under (3) were added to the HL-60 cell suspension prepared as described above under (1) to final concentrations of 10 μg/ml and 1.0 μg/ml. Using 12-well culture plates (Costar), cultivation was conducted in a 5% carbon dioxide gas incubator maintained at 37° C. for 3 to 4 days. The test compound-free medium was used as a control. Thereafter, the cell suspension in each well was sampled and mixed with 0.2% trypan blue-containing phosphate buffer, and unstained viable cells were counted under a microscope. Based on the counting result, the viable cell concentration was readjusted to 1×10^5 cells/ml, and cultivation was continued under the same conditions.

Reverse transcriptase = assay: Antiretrovirus activity test: reverse transcriptase activity of virus from culture supernatant; type: cell-based, HIV; conditions: for Reverse transcriptase activity (cpm): control 1316
Protocol: as §1, §2, §3
The cell suspension in each well was then centrifuged (1500 rpm×5 min) and 750 μl of culture supernatant was obtained.
The culture supernatant, 750 μ, obtained above was placed in an Eppendorf tube (1.8 ml) and 4 M NaCl and PEG-6000 (Sigma) were added. The mixture was allowed to react at 0° C. for 2 hours to precipitate the virus and the virus was harvested by centrifugation (15000 rpm×20 min). To this virus pellet were added solution 1 [50% glycerol (Wako Pure Chemical), 25 mM Tris-HCl (pH 7.5), 50 mM KCl 0.025% Triton X-100 (Sigma) and 5 mM DTT (Sigma)] and solution II [0.9% Triton X-100 (Sigma) and 1.5M KCl] for lysis at 0° C. for 30 min. To the resultant 10-μl virus solution were added 5 mg/ml bovine serum albumin (BSA, Sigma), 1 M Tris-HCl, 100 mM DTT (Sigma), 1M KCl, 10 mM Poly A (Sigma), 0.15 mM TTP (Sigma), 200 mM MgCl2, 0.15 mM Oligo(dT) (NEN) and [^3 H]-TTP (NEN) and the mixture was allowed to react at 37° C. for 1 hour. The reaction was then stopped by placing the mixture in ice and the whole amount was spotted on a membrane filter (DE-81 Filter, Whatman) and dried. After drying, the filter was washed three times with 0.5 M Na2 HPO4 and rinsed in ethanol and dried. The radioactivity of [^3 H]-TTP taken into DNA on the membrane was counted with a liquid scintillation counter to determine reverse transcriptase activity (unit, cpm).

HL-60 cells = assay: Reactivity of HL-60 cells with anti-CD33 monoclonal antibody My9 (flow cytometry); type: cell-based, human; conditions: day 27, control 97
Protocol: The monoclonal antibody My9 (Coulter) capable of specifically reacting with immature granulocytes was dissolved by adding 0.5 ml of distilled water per vial.
HL-60 cells prepared as described above under (1) were cultivated in the same manner as in a). On day 27, the cell concentration was adjusted to 1×10^6 cells/ml and 100 μl of each aliquot was reacted with 10 μl of fluorescein (FITC)-labeled My9, followed by flow cytometry.

[3] = system: human peripheral blood acute lymphocytic leukemia cells (Molt-4); assay: ATL-infected cell growth inhibition test: ATLV-noninfected cells; type: cell-based; conditions: for Number of ATLV-noninfected cells: 4 days, control 13.9
Protocol: Human peripheral blood acute lymphocytic leukemia cells (Molt-4) [J. Minowada, et al., J. Natl. Cancer Inst., 49, 891-895 (1972): ATCC CRL1582] were used to prepare a suspension of 1×10^5 cells/ml in RPMI-1640 medium (Gibco) supplemented 10% fetal calf serum (FCS, Gibco) for use as ATL virus-noninfected cells.
Compound 1 was dissolved in hydrochloric acid, diluted with the same medium as above, neutralized with 2N NaOH and adjusted to concentrations of 1 μg/ml, 10 μg/ml and 30 μg/ml.
The cells prepared in (a) and (b) above were respectively placed in wells of a 24-well culture plate (Nunc), followed by addition of the test compound prepared in (c) (final concentration: 1 μg/ml, 10 μg/ml or 30 μg/ml), and cultured at 37° C. in a 5% carbon dioxide incubator for 4 days. As a control, the medium without addition of the test compound was used. After completion of incubation, the cell suspension in each well was taken for determination of viable cells.

`COc1ccc(C(=O)N2CCN(c3ccc4c(c3)CCC(=O)N4)CC2)cc1OC` [Compound 1, 6-[4-(3,4-Dimethoxybenzoyl)-1-piperazinyl]-3,4-dihydrocarbostyril] was tested, and the “Inhibition of HIV-infected cell growth (in words)” value [1] was “inhibits cell growth”, the “Number of HIV-infected cells” value ([1]; 1 μg/ml) was 100 ×10^4 and the “Number of HIV-infected cells” value ([1]; 10 μg/ml) was 88 ×10^4. The “Number of HIV-infected cells” value ([1]; 30 μg/ml) was 78 ×10^4, the “Number of HIV-infected cells” value ([1]; 100 μg/ml) was 85 ×10^4 and the activity at 1 µg/mL ([2]; HL-60, 648 h, on day 27, 1.0 μg/ml) was 76 ± 3.8%. For the same compound, the activity at 10 µg/mL ([2]; HL-60, 648 h, on day 27, 10 μg/ml) was 54 ± 2.6%, the activity at 1 µg/mL ([2]; HL-60, 792 h, on day 33, 1.0 μg/ml) was 0% and the activity at 10 µg/mL ([2]; HL-60, 792 h, on day 33, 10 μg/ml) was 0%. For the same compound, the “Reverse transcriptase activity (cpm)” value (Reverse transcriptase; 1 μg/ml) was 1423 cpm, the “Reverse transcriptase activity (cpm)” value (Reverse transcriptase; 10 μg/ml) was 1494 cpm and the “Inhibition of reverse transcriptase activity (in words)” value (Reverse transcriptase; 30 μg/ml and 100 μg/ml) was “inhibits reverse transcriptase activity remarkably”. The “Reverse transcriptase activity (cpm)” value (Reverse transcriptase; 30 μg/ml) was 372 cpm, the “Reverse transcriptase activity (cpm)” value (Reverse transcriptase; 100 μg/ml) was 898 cpm and the “Positive rate (%), anti-CD33 My9” value (HL-60 cells; 1.0 μg/ml) was 90%. For the same compound, the “Positive rate (%), anti-CD33 My9” value (HL-60 cells; 10 μg/ml) was 77%, the “Number of ATLV-noninfected cells” value ([3]; 1 μg/ml) was 13.9 ×10^5 and the “Number of ATLV-noninfected cells” value ([3]; 10 μg/ml) was 12.2 ×10^5. For the same compound, the “Number of ATLV-noninfected cells” value ([3]; 30 μg/ml) was 12.8 ×10^5 and the “Effect on ATLV-noninfected cells (in words)” value ([3]; 1-30 μg/ml) was “does not affect ATLV-noninfected cells”.
